Data taken from ChEMBL document CHEMBL3045377, “An aphid repellent glycoside from Solanum laxum” (2000).

Key:
Assay type in all cases: functional
[1] = tested on: Schizaphis graminum; experiment: Toxicity against Schizaphis graminum fed on artificial diet containing compound assessed as relative survival at 250 uM after 24 hr by non-choice assay (reference value: 100 +/-0%)
[2] = tested on: Schizaphis graminum; experiment: Feeding deterrence activity against Schizaphis graminum fed on artificial diet containing compound assessed as relative survival at 100 uM after 24 hr by non-choice assay (reference value: 100 +/-0%)
[3] = tested on: Schizaphis graminum; experiment: Toxicity against Schizaphis graminum fed on artificial diet containing compound assessed as relative survival at 50 uM after 24 hr by non-choice assay (reference value: 100 +/-0%)
[4] = tested on: Schizaphis graminum; experiment: Feeding deterrence activity against Schizaphis graminum fed on artificial diet containing compound assessed as relative survival at 500 uM after 12 hr by non-choice assay (reference value: 100 +/-0%)
[5] = tested on: Schizaphis graminum; experiment: Feeding deterrence activity against Schizaphis graminum fed on artificial diet containing compound assessed as relative survival at 500 uM after 24 hr by non-choice assay (reference value: 100 +/-0%)
[6] = tested on: Schizaphis graminum; experiment: Feeding deterrence activity against Schizaphis graminum fed on artificial diet containing compound assessed as relative survival at 250 uM after 12 hr by non-choice assay (reference value: 100 +/-0%)
[7] = tested on: Schizaphis graminum; experiment: Toxicity against Schizaphis graminum fed on artificial diet containing compound assessed as relative survival at 500 uM after 24 hr by non-choice assay (reference value: 100 +/-0%)
[8] = tested on: Schizaphis graminum; experiment: Toxicity against Schizaphis graminum fed on artificial diet containing compound assessed as relative survival at 100 uM after 24 hr by non-choice assay (reference value: 100 +/-0%)
[9] = tested on: Schizaphis graminum; experiment: Feeding deterrence activity against Schizaphis graminum fed on artificial diet containing compound assessed as relative survival at 50 uM after 24 hr by non-choice assay (reference value: 100 +/-0%)
[10] = tested on: Schizaphis graminum; experiment: Feeding deterrence activity against Schizaphis graminum fed on artificial diet containing compound assessed as relative survival at 100 uM after 12 hr by non-choice assay (reference value: 100 +/-0%)
[11] = tested on: Schizaphis graminum; experiment: Feeding deterrence activity against Schizaphis graminum fed on artificial diet containing compound assessed as relative survival at 50 uM after 12 hr by non-choice assay (reference value: 100 +/-0%)
[12] = tested on: Schizaphis graminum; experiment: Feeding deterrence activity against Schizaphis graminum fed on artificial diet containing compound assessed as relative survival at 250 uM after 24 hr by non-choice assay (reference value: 100 +/-0%)

Which results are given for `C[C@H]1CC[C@@]2(OC1)O[C@H]1[C@H](O)[C@H]3[C@@H]4CC=C5C[C@@H](O[C@@H]6O[C@H](CO)[C@H](O[C@@H]7O[C@H](CO)[C@@H](O)[C@H](O)[C@H]7O[C@@H]7O[C@H](CO)[C@@H](O)[C@H](O)[C@H]7O)[C@H](O)[C@H]6O[C@@H]6O[C@@H](C)[C@H](O)[C@@H](O)[C@H]6O)CC[C@]5(C)[C@H]4CC[C@]3(C)[C@H]1[C@@H]2C` [Luciamin]?
survival at 250 µM [1]: 48%; survival at 100 µM [2]: 70%; survival at 50 µM [3]: 47%; survival at 500 µM [4]: 70%; survival at 500 µM [5]: 76%; survival at 250 µM [6]: 85%; survival at 500 µM [7]: 40%; survival at 100 µM [8]: 49%; survival at 50 µM [9]: 64%; survival at 100 µM [10]: 80%; survival at 50 µM [11]: 93%; survival at 250 µM [12]: 72%
